The subject of test [1] is MET-amplified gastric cancer cell line GTL-16. Put plainly: GTL-16 proliferation assay (MTS). Type of test: cell-based. The settings on record: Homo sapiens, GTL-16 cells, 72 h incubation. The method in brief:
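GTL-16 cells were seeded at 3000/well in DMEM with 10% FCS. After 24 h they were treated in triplicate with a 10-point, 3-fold dilution series ([…]; DMSO-only control) for 72 h. Viable cells were measured by MTS, with OD 490 nm read after 30 min.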

In test [2] the target is T1, c-Met (Homo sapiens, UniProt P08581).
T1 construct: adapted to measure the phosphorylation of endogenous cellular proteins in cell lysates; endogenous in cells; host or cells: GTL-16
Nature of the test: GTL-16 c-Met autophosphorylation measured by AlphaScreen detection. It is filed as cell-based. The settings on record: GTL-16 cells, 1 h incubation, AlphaScreen p-c-Met; read-out: GTL-16 IC50 c-Met phosphorylation. The method, boiled down:
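GTL-16 MET-amplified gastric cancer cells, serum-free DMEM with 0.1% BSA, exposed to 8-point compound dilutions for 1 h at 37° C (0.11% DMSO final). Lysates probed for phospho-c-Met by AlphaScreen using anti-c-Met antibody, biotinylated PY20 phosphotyrosine antibody, Protein A acceptor and streptavidin donor beads.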
(Bead proximity is the source of the signal in Alpha formats.)

Test [3] has as its target T2, c-Met receptor tyrosine kinase, GST-c-Met(969-1390) (Homo sapiens, UniProt P08581).
T2 construct: made in house
Nature of the test: EPK c-Met profiling assay (LanthaScreen TR-FRET kinase assay). It is filed as biochemical. The settings on record: 2 μM ATP, 0.3 nM enzyme, 60 minutes at room temperature. The method, boiled down: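 Recombinant GST-c-Met(969-1390) cytoplasmic domain, 0.3 nM, phosphorylating 50 nM Fluorescein-PolyEAY with 2 μM ATP, 10 mM MgCl2, 3 mM MnCl2, 60 min at room temperature. EDTA-stopped; phosphoproduct detected by TR-FRET with Tb-PY20 antibody, end-point read. Final compound 0.003-10 μM over 8 concentrations.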
(TR-FRET usually uses a lanthanide donor and a delayed reading to cut background.)

Structures are written as SMILES.

T1 sequence (P08581 25-1390): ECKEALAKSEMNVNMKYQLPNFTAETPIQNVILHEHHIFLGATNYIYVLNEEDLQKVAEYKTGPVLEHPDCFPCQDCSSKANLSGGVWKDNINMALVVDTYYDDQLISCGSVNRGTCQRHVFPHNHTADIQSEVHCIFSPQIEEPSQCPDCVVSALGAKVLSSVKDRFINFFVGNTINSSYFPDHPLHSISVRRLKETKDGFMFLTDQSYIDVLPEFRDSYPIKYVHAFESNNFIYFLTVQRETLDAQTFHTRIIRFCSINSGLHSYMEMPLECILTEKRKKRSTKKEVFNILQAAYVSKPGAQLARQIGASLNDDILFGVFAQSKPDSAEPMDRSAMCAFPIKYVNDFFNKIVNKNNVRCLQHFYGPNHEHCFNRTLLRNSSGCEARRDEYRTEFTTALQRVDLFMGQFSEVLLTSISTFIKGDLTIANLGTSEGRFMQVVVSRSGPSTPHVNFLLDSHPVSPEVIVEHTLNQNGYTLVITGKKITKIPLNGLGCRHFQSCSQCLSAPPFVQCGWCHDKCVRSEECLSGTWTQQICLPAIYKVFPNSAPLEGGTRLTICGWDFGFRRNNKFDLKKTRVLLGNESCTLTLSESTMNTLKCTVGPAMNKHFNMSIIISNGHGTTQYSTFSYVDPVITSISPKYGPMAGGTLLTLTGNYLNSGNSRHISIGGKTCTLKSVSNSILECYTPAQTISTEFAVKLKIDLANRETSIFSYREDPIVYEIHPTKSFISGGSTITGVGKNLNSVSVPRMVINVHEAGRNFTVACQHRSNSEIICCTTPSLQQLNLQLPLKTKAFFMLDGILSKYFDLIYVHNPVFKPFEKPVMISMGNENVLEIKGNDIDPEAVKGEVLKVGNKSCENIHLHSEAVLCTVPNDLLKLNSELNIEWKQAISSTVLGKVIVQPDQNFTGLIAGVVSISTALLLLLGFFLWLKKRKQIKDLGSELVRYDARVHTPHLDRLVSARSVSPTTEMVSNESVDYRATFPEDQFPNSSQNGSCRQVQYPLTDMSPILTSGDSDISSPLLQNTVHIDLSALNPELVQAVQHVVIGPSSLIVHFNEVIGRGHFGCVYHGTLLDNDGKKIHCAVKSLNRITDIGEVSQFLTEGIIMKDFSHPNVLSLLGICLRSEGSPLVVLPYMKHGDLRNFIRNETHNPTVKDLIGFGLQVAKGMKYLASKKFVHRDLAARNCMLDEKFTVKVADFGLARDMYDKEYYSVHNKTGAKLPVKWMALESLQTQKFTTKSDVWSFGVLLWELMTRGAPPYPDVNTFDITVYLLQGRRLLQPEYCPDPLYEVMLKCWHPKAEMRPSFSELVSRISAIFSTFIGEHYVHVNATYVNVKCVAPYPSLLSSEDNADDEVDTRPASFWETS
T2 sequence (P08581 969-1390): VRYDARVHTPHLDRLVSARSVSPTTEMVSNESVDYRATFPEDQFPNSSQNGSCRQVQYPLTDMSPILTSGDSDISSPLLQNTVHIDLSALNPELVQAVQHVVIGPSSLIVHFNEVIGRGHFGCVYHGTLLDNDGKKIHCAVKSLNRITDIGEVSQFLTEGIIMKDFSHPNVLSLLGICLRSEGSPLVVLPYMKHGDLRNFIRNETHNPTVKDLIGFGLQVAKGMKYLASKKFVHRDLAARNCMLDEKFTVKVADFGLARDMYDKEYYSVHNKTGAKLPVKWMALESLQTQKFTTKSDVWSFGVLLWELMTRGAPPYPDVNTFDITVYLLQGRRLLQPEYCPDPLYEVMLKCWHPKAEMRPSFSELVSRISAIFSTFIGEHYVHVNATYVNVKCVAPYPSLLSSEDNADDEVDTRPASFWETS

In general, IC50 refers to the concentration at which inhibition is half-maximal. For the compound `C[C@@H](c1c(F)cc2ncccc2c1F)c1cnc2ccc(N3CCN(C(N)=O)CC3)nn12` [Example 16, 4-{3-[(S)-1-(5,7-Difluoro-quinolin-6-yl)-ethyl]-imidazo[1,2-b]pyridazin-6-yl}-piperazine-1-carboxylic acid amide], the values for the IC50 in test [1], in test [2] and in test [3] were 15 nM, 5.5 nM and 1.7 nM, respectively.

Regarding `CC(=O)N1CCN(c2ccc3ncc([C@@H](C)c4c(F)cc5c(cnn5C)c4F)n3n2)CC1` [Example 53, 1-(4-{3-[(S)-1-(4,6-Difluoro-1-methyl-1H-indazol-5-yl)-ethyl]-imidazo[1,2-b]pyridazin-6-yl}-piperazin-1-yl)-ethanone], the concentration for half-maximal inhibition (IC50) in test [1] turned out to be 22 nM; in test [2], 4.4 nM; in test [3] it was 5.2 nM.

Regarding `CN1CCN(c2ccc3ncc(Cc4c(F)cc5ncccc5c4F)n3n2)CC1=O` [Example 30, 4-[3-(5,7-Difluoro-quinolin-6-ylmethyl)-imidazo[1,2-b]pyridazin-6-yl]-1-methyl-piperazin-2-one], the IC50 is 37 nM in test [1], less than 3 nM in test [2] and 6.6 nM in test [3].

The values are drawn from patent publication US8389526B2, “3-heteroarylmethyl-imidazo[1,2-b]pyridazin-6-yl derivatives” (Novartis AG, priority 2009, dated 2013).
